Laboratory results taken from patent publication US8859818B2, “Electrophotographic photoreceptor” (Takasago International Corporation, priority 2010, dated 2014).

Experiments:
[1] = solubility in tetrahydrofuran; format: physicochemical; conditions: 25° C., weight dissolved completely in 1 g tetrahydrofuran
Protocol: Each of the Exemplified Compounds (1-1) and (1-2) was dissolved in 1 g of tetrahydrofuran at 25° C.
Experiments were conducted by using Comparative Compounds (3) to (5) in the same manner as in Example 8.

[2] = dissolution in binder polymer solution for film formation; format: physicochemical
Protocol: Into 85 parts by weight of tetrahydrofuran, 15 parts by weight of “Panlite TS-2020” (manufactured by Teijin Chemicals Ltd.) and 15 parts by weight of Compound (1-1) were dissolved by mixing. The solution was applied by using a doctor blade onto a sheet in which aluminum was vapor deposited on a polyethylene […] (PET) film, followed by drying at 80° C. for 3 hours. Thus, a charge transport layer was formed (thickness: 18 μm). Further, a translucent gold electrode was vapor deposited on this charge transport layer, and the charge carrier mobility was measured. For the measurement of the carrier mobility, a nitrogen gas laser having a pulse half width of […] and a wavelength of 337 nm was used as a light source, and the time-of-flight method (Toshiaki Tanaka, Yasuhiro Yamaguchi and Masaaki Yokoyama, Denshi Shashin (Electrophotography), 29, 366 (1990)) was employed. Table 1 and FIG. 1 show the results measured at 25° C. and 25 V/μm.
Experiments were conducted by using Comparative Compounds (1) to (6) in the same manner as in Example 1. […] Note that it was impossible to measure the mobility of Comparative Compounds (3) to (5) because of their insolubility.
Into 8 parts by weight of tetrahydrofuran, 1 part by weight of a polycarbonate “Z-200” (manufactured by Mitsubishi Engineering-Plastics Corporation) and 1 part by weight of Compound (1-1) or (1-2) were dissolved by mixing. The liquid was applied onto the charge generation layer, followed by drying at 80° C. for 2 hours, to thereby form a charge transport layer (thickness: approximately 20 μm). Thus, each electrophotographic photoreceptor was prepared.
Experiments were conducted by using Comparative Compounds (2) to (6) in the same manner as in Example 4. […] Note that it was impossible to measure the electrophotographic characteristics of Comparative Compounds (3) to (5) because of their insolubility.
Into 85 parts by weight of tetrahydrofuran, 15 parts by weight of “Panlite TS-2020” and 15 parts by weight of Compound (1-1) or (1-2) were dissolved by mixing. This liquid was applied onto a PET plate by using a doctor blade, followed by drying at 80° C. for 3 hours. Thus, a thin film was prepared (thickness: approximately 20 μm).
Experiments were conducted by using Comparative Compounds (3) to (5) in the same manner as in Example 6. […] Note that it was impossible to perform measurement of Comparative Compounds (3) to (5) because of their insolubility.

[3] = 1 part polycarbonate Z-200, 1 part compound, 8 parts tetrahydrofuran
[4] = 15 parts Panlite TS-2020, 15 parts compound, 85 parts tetrahydrofuran

For `Cc1ccc(/C=C/c2ccc(N(c3ccc(/C=C/c4ccc(C)cc4)cc3)c3ccc(/C=C/c4ccc(C)cc4)cc3)cc2)cc1` [Comparative Compound (3)], the Solubility [1] was 0.08 g/g tetrahydrofuran, the “dissolution in binder polymer solution” value [2, 3] was “not successfully dissolved” and the “dissolution in binder polymer solution” value [2, 4] was “not successfully dissolved”.
For `Cc1ccccc1/C=C/c1ccc(N(c2ccc(/C=C/c3ccccc3C)cc2)c2ccc(/C=C/c3ccccc3C)cc2)cc1` [Comparative Compound (4)], the Solubility [1] was 0.02 g/g tetrahydrofuran, the “dissolution in binder polymer solution” value [2, 3] was “not successfully dissolved” and the “dissolution in binder polymer solution” value [2, 4] was “not successfully dissolved”.
With `COc1ccc(/C=C/c2ccc(N(c3ccc(/C=C/c4ccc(OC)cc4)cc3)c3ccc(/C=C/c4ccc(OC)cc4)cc3)cc2)cc1` [Comparative Compound (5)] the Solubility [1] was 0.10 g/g tetrahydrofuran, the “dissolution in binder polymer solution” value [2, 3] was “not successfully dissolved” and the “dissolution in binder polymer solution” value [2, 4] was “not successfully dissolved”.
`Cc1cccc(C=Cc2ccc(N(c3ccc(C=Cc4cccc(C)c4)cc3)c3ccc(C=Cc4cccc(C)c4)cc3)cc2)c1` [Compound (1-1)] gave a Solubility [1] of 0.40 g/g tetrahydrofuran and a melting point of 98 to 99 °C.
`COc1cccc(C=Cc2ccc(N(c3ccc(C=Cc4cccc(OC)c4)cc3)c3ccc(C=Cc4cccc(OC)c4)cc3)cc2)c1` [Compound (1-2)] gave a Solubility [1] of 0.45 g/g tetrahydrofuran and a melting point of 145 to 146 °C.
